Data on five molecules can be found in publication PMC8228121, “Super-Cationic Peptide Dendrimers—Synthesis and Evaluation as Antimicrobial Agents” (Antibiotics, 2021).

Values after ≈ are worked out from the molar mass of the structure shown. Bridge positions count the residues as written; N and C are the ends. Side chains are listed from the residue outwards. Peptide text beside a SMILES is read from it. I, II: the chains in the order shown. * marks the point of attachment. Hexanoyl = CCCCCC(=O)* Bounds are passed on as bounds.

The test system of one series is S. aureus ATCC 29213. As to the kind of experiment: microbe, parasite or virus in culture. Type of series: cell-based, Staphylococcus aureus. The following applies: ATCC 29213. The method, then: (§1) Clinical isolates of CRE, MRSA and VRE were obtained from Lancet Laboratories, Durban, South Africa, with approval BE394/15 from the Biomedical Research Ethical Committee of the University of KwaZulu-Natal. Five reference strains of bacteria, namely Escherichia coli ATCC 25922, Pseudomonas aeruginosa ATCC 27853, Enterococcus faecium ATCC 35667, Staphylococcus aureus ATCC 29213 and Bacillus subtilis ATCC 6051 were supplied by the American Type Culture Collection (ATCC).
(§2) MIC values were determined by the broth microdilution method and the significance of the values obtained was interpreted following the guidelines of the Clinical and Laboratory Standards for Antimicrobial Susceptibility Testing.. The effect of human serum on the antimicrobial effect of the molecules tested was determined in a similar way to the MIC method used above in a solution of 50% human serum plus Mueller–Hinton broth.

A further series has as its system B. subtilis ATCC 6051. As to the kind of experiment: microbe, parasite or virus in culture. The conditions noted are these: ATCC 6051. In kind it is cell-based, Bacillus subtilis. The method, then:
as §1, §2

A further series concerns E. faecium ATCC 35667. Briefly: microbe, parasite or virus in culture. In kind it is cell-based, Enterococcus faecium. The following applies: ATCC 35667. The method, then: as §1, §2
In a further series the test system is E. coli ATCC 25822. Briefly: microbe, parasite or virus in culture. Type of series: cell-based, Escherichia coli. The following applies: ATCC 25822. The method, then: as §1, §2
In another series the test system is P. aeruginosa ATCC 27853. Briefly: microbe, parasite or virus in culture. The following applies: ATCC 27853. Type of series: cell-based, Pseudomonas aeruginosa. The method, then: as §1, §2
Another series is described as follows: MTT cytotoxicity assay. Type of series: cell-based, human. The conditions noted are these: human, HepG2 cells, HepG2, 24 h exposure. Background: Formazan colour is commonly taken as a measure of viable cells.
Another series in a line: in vitro. The following applies: human.
The subject of the next series is P. aeruginosa. As to the kind of experiment: Time–kill curves. In kind it is cell-based. How it is done:
Killing curve assays were performed with a starting inoculum of 6 × 10^6 CFU/mL. […] Antimicrobials were added to 5 mL of bacteria in the exponential phase of growth and incubated at 37 °C with shaking. Samples were obtained aseptically at 0, 1, 2, 4, 6 and 24 h, diluted in Ringer 1/4 and plated on TSA for colony counting. The response of microbial strains to a single antimicrobial was determined by lowering logarithms of viable bacteria. In accordance with Lora-Tamayo et al., an antimicrobial was considered active when a reduction of ≥1 log10 relative to the initial inoculum was observed.

Series [1] concerns MRSA (methicillin-resistant S. aureus) isolates. Briefly: microbe, parasite or virus in culture. In kind it is cell-based. How it is done: as §1, §2
Another series concerns VRE, E. faecium isolates. Briefly: microbe, parasite or virus in culture. Type of series: cell-based. The method, then: as §1, §2

Description for MTT cytotoxicity assay: (§3) Cell viability was evaluated using the colorimetric MTT assay [21]. Human hepatocarcinoma (HepG2) cells and human embryonic kidney 293 (HEK-293) cells used in the drug toxicity assays were obtained from Cellonex (Johannesburg, South Africa). Viable HepG2 and HEK293 cells (20,000 cells/well) were seeded into a 96-well microtiter plate (200 µL) and allowed to attach overnight. The cells were exposed to varying concentrations of the peptides for 24 h. After removal of the treatment medium, 20 µL of MTT salt solution (5 mg/mL in 0.1M phosphate buffer saline (PBS)) and 100 µL of complete cell culture medium (CCM) were added to each well. After a 4 h (37 °C) incubation, the MTT salt solution was discarded and 100 μL of dimethyl sulphoxide (DMSO) were added to each well (1 h, 37 °C). The optical density of the solubilized formazan product was measured at 570 nm (reference λ of 690 nm) using a Bio-tek μQuant spectrophotometer (Winooski, VT, USA). […] GraphPad Prism (V5) (La Jolla, CA, USA) was used to obtain the half maximum inhibitory concentration (IC50) for each compound.
Description for in vitro: as §3

Take `CC(C)C[C@H](NC(=O)[C@H](CC(C)C)NC(=O)[C@H](CCCNC(=N)N)NC(=O)[C@H](CC(C)C)NC(=O)[C@H](CC(C)C)NC(=O)[C@H](CCCCNC(=O)[C@H](CCCNC(=N)N)NC(=O)[C@H](CC(C)C)NC(=O)[C@@H](N)CCCNC(=N)N)NC(=O)[C@H](CCCNC(=N)N)NC(=O)[C@H](CC(C)C)NC(=O)[C@@H](N)CCCNC(=N)N)C(N)=O` [G1RLR-L2RL2, (RLR)2KLLRLL-NH2] (H-RLRK([Arg-Leu-Arg])LLRLL-NH2): the MBC is 16 µg/mL (≈ 9.97 µM) with S. aureus ATCC 29213; 32 µg/mL (≈ 19.9 µM) in the series on B. subtilis ATCC 6051; 4 µg/mL (≈ 2.49 µM) with E. faecium ATCC 35667; 8 µg/mL (≈ 4.98 µM) in the series with E. coli ATCC 25822; 16 µg/mL (≈ 9.97 µM) against P. aeruginosa ATCC 27853. For the same molecule, the MIC against S. aureus ATCC 29213 was found to be 16 µg/mL (≈ 9.97 µM); in the series with B. subtilis ATCC 6051, 32 µg/mL (≈ 19.9 µM); against E. faecium ATCC 35667, 4 µg/mL (≈ 2.49 µM); against E. coli ATCC 25822, 8 µg/mL (≈ 4.98 µM); in the series with P. aeruginosa ATCC 27853, 16 µg/mL (≈ 9.97 µM). The IC50 at 24 h in “MTT cytotoxicity assay” came out at 328 µg/mL (≈ 204 µM); in “in vitro”, 153 µg/mL (≈ 95.3 µM).

As for `CC(C)C[C@H](NC(=O)[C@H](CC(C)C)NC(=O)[C@H](CCCNC(=N)N)NC(=O)[C@H](CC(C)C)NC(=O)[C@H](CC(C)C)NC(=O)[C@H](CCCCNC(=O)[C@H](CCCNC(=N)N)NC(=O)[C@H](CC(C)C)NC(=O)[C@H](CCCNC(=N)N)NC(=O)[C@H](CCCCNC(=O)[C@H](CCCNC(=N)N)NC(=O)[C@H](CC(C)C)NC(=O)[C@@H](N)CCCNC(=N)N)NC(=O)[C@H](CCCNC(=N)N)NC(=O)[C@H](CC(C)C)NC(=O)[C@@H](N)CCCNC(=N)N)NC(=O)[C@H](CCCNC(=N)N)NC(=O)[C@H](CC(C)C)NC(=O)[C@H](CCCNC(=N)N)NC(=O)[C@H](CCCCNC(=O)[C@H](CCCNC(=N)N)NC(=O)[C@H](CC(C)C)NC(=O)[C@@H](N)CCCNC(=N)N)NC(=O)[C@H](CCCNC(=N)N)NC(=O)[C@H](CC(C)C)NC(=O)[C@@H](N)CCCNC(=N)N)C(N)=O` [G2RLR-L2RL2, (RLR)4(KRLR)2KLLRLL-NH2] (I: H-RLRK([Arg-Leu-Arg])RLRKLLRLL-NH2 / II: H-RLRK([Arg-Leu-Arg])RLR; amide I:8-II:C), the MBC in the series on S. aureus ATCC 29213 stood at 32 µg/mL (≈ 8.98 µM); in the series on B. subtilis ATCC 6051, 16 µg/mL (≈ 4.49 µM); against E. faecium ATCC 35667 it was 16 µg/mL (≈ 4.49 µM); in the series on E. coli ATCC 25822, 64 µg/mL (≈ 18 µM); in the series with P. aeruginosa ATCC 27853, 64 µg/mL (≈ 18 µM). The MIC against S. aureus ATCC 29213 amounted to 32 µg/mL (≈ 8.98 µM); against B. subtilis ATCC 6051 it was 16 µg/mL (≈ 4.49 µM); in the series with E. faecium ATCC 35667, 16 µg/mL (≈ 4.49 µM); in the series with E. coli ATCC 25822, 64 µg/mL (≈ 18 µM); against P. aeruginosa ATCC 27853 it was 64 µg/mL (≈ 18 µM). Besides, the half-inhibitory concentration (IC50) at 24 h in the series “MTT cytotoxicity assay” was found to be 102 µg/mL (≈ 28.7 µM); in the series “in vitro” it was 67.4 µg/mL (≈ 18.9 µM). The “time–kill: effect on bacterial population” value was “reduced the bacterial population to almost zero and no regrowth was appreciated after 24 h” in the series with P. aeruginosa (at MIC); “the bacterial population remained partially inhibited at the beginning of the exposure” with P. aeruginosa (at ¼ MIC); “reduced the bacterial population to almost zero and no regrowth was appreciated after 24 h” in the series on P. aeruginosa (at ½ MIC).

On to `CCCCCC(=O)N[C@@H](CCCCN)C(=O)N[C@@H](CC(C)C)C(=O)N[C@@H](CCCCN)C(=O)NCCCC[C@H](NC(=O)[C@H](CCCCN)NC(=O)[C@H](CC(C)C)NC(=O)[C@H](CCCCN)NC(=O)CCCCC)C(=O)N[C@@H](CCCCN)C(=O)N[C@@H](CC(C)C)C(=O)N[C@@H](CCCCN)C(=O)NCCCC[C@H](NC(=O)[C@H](CCCCN)NC(=O)[C@H](CC(C)C)NC(=O)[C@H](CCCCN)NC(=O)[C@H](CCCCNC(=O)[C@H](CCCCN)NC(=O)[C@H](CC(C)C)NC(=O)[C@H](CCCCN)NC(=O)CCCCC)NC(=O)[C@H](CCCCN)NC(=O)[C@H](CC(C)C)NC(=O)[C@H](CCCCN)NC(=O)CCCCC)C(=O)N[C@@H](CC(C)C)C(=O)N[C@@H](CC(C)C)C(=O)N[C@@H](CCCCN)C(=O)N[C@@H](CC(C)C)C(=O)N[C@@H](CC(C)C)C(N)=O` [Hx-G2KLK-L2KL2, (Hx-KLK)4(KKLK)2KLLKLL-NH2] (I: Hexanoyl-KLKK([Lys-Leu-Lys-Hexanoyl])KLKKLLKLL-NH2 / II: Hexanoyl-KLKK([Lys-Leu-Lys-Hexanoyl])KLK; amide I:8-II:C; N-terminus assumed), for which the MBC is reported as 128 µg/mL (≈ 35.6 µM) against S. aureus ATCC 29213; 128 µg/mL (≈ 35.6 µM) in the series on B. subtilis ATCC 6051; 64 µg/mL (≈ 17.8 µM) with E. faecium ATCC 35667; 64 µg/mL (≈ 17.8 µM) against E. coli ATCC 25822; 64 µg/mL (≈ 17.8 µM) in the series on P. aeruginosa ATCC 27853. Further, the MIC amounted to 128 µg/mL (≈ 35.6 µM) in the series on S. aureus ATCC 29213; 64 µg/mL (≈ 17.8 µM) against B. subtilis ATCC 6051; 32 µg/mL (≈ 8.91 µM) in the series with E. faecium ATCC 35667; 64 µg/mL (≈ 17.8 µM) in the series with E. coli ATCC 25822; 64 µg/mL (≈ 17.8 µM) against P. aeruginosa ATCC 27853; 64 µg/mL (≈ 17.8 µM) in series [1] (methicillin-resistant ) isolates).

Regarding `CN[C@H](CC(C)C)C(=O)N[C@H]1C(=O)N[C@@H](CC(N)=O)C(=O)N[C@H]2C(=O)N[C@H]3C(=O)N[C@H](C(=O)N[C@H](C(=O)O)c4cc(O)cc(O)c4-c4cc3ccc4O)[C@H](O)c3ccc(c(Cl)c3)Oc3cc2cc(c3O[C@@H]2O[C@H](CO)[C@@H](O)[C@H](O)[C@H]2O[C@H]2C[C@](C)(N)[C@H](O)[C@H](C)O2)Oc2ccc(cc2Cl)[C@H]1O` [Van, vancomycin, reference compound], the MIC in series [1] (MRSA isolate B11970), in series [1] (MRSA isolate B13178), in [1] (MRSA isolate P10747), in series [1] (MRSA isolate P10781), in series [1] (MRSA isolate P11520) and in series [1] (MRSA isolate S18155) was 1 µg/mL (≈ 0.69 µM) throughout. Moreover, the MIC in [1] (MRSA isolate S37938) is 1 µg/mL (≈ 0.69 µM); in series [1] (MRSA isolate T5683), 1 µg/mL (≈ 0.69 µM); in series [1] (Staphylococcus aureus) it was 1 µg/mL (≈ 0.69 µM); in [1] (Staphylococcus aureus, MRSA), 1 µg/mL (≈ 0.69 µM); with VRE, E. faecium isolates (Enterococcus faecium) it was more than 128 µg/mL; with VRE, E. faecium isolates (Enterococcus faecium, VRE) it was more than 128 µg/mL. The MIC against VRE, E. faecium isolates (VRE E. faecium isolate 938072607) is reported as more than 128 µg/mL; in the series with VRE, E. faecium isolates (VRE E. faecium isolate 938600912), more than 128 µg/mL; in the series on VRE, E. faecium isolates (VRE E. faecium isolate 938636470), more than 128 µg/mL; in the series on VRE, E. faecium isolates (VRE E. faecium isolate 938666613), more than 128 µg/mL; in the series on VRE, E. faecium isolates (VRE E. faecium isolate 945530665), more than 128 µg/mL; in the series on VRE, E. faecium isolates (VRE E. faecium isolate 951208931), more than 128 µg/mL. Moreover, the MIC with VRE, E. faecium isolates (VRE E. faecium isolate 951234856) is given as more than 128 µg/mL; against VRE, E. faecium isolates (VRE E. faecium isolate 951245262), more than 128 µg/mL.

Consider “I: H-KLKK([Lys-Leu-Lys])KLKKKLKKLLKLL-NH2 / II: H-KLKK([Lys-Leu-Lys])KLKKKLK / III: H-KLKK([Lys-Leu-Lys])KLK / IV: H-KLKK([Lys-Leu-Lys])KLK (amide I:8-IV:C, I:12-II:C, II:8-III:C) [G3KLK-L2KL2, (KLK)8(KKLK)4(KKLK)2KLLKLL-NH2]”, for which the MBC amounted to 16 µg/mL with S. aureus ATCC 29213; 8 µg/mL in the series with B. subtilis ATCC 6051; 64 µg/mL in the series on E. faecium ATCC 35667; 32 µg/mL against E. coli ATCC 25822; 16 µg/mL against P. aeruginosa ATCC 27853. Besides, the MIC against S. aureus ATCC 29213 was 16 µg/mL; against B. subtilis ATCC 6051, 4 to 8 µg/mL; in the series on E. faecium ATCC 35667 it was 64 µg/mL; in the series with E. coli ATCC 25822, 32 µg/mL; in the series on P. aeruginosa ATCC 27853, 16 µg/mL. Further, the concentration for half-maximal inhibition (IC50) at 24 h in “MTT cytotoxicity assay” worked out at 25.7 µg/mL; in “in vitro” it was 53.9 µg/mL.

Broadly, the IC50 is the concentration needed to halve the response being measured.
